# Test results taken from patent US11155547B1, “Compounds for and methods of treating diseases” (Alterity Therapeutics Limited, priority 2020, dated 2021).
# Test system: human neuroblastoma line BE(2)-M17 (M17) cells
# Test: Measurement of Fe efflux from cells (57Fe in media by ICP-MS)
# Type: cell-based
# Settings: Homo sapiens; M17 cells pre-loaded with 57Fe; compound 20 μM, 2 h; Fe in media as percentage increase relative to cell media in the absence of the compound; read-out: % Fe Efflux Range
# Procedure: Compounds of the current invention were assessed for their ability to efflux iron (Fe) from a cell using the following protocol. The human neuroblastoma line BE(2)-M17 (M17) cell cultures were acquired from Sigma Aldrich (Catalogue #: 95011816). M17 cells were maintained in Opti-MEM reduced serum media supplemented with 10% fetal bovine serum (Bovogen, SFBSF) and passaged twice weekly. Cells were cultured at 37° C. in the presence of 5% CO2. Culture supplies were sourced from Thermo Fisher unless otherwise stated. A solution of ^57Fe isotope was prepared by dissolving ^57Fe metal (>95% enrichment, Trace Sciences International) in concentrated HCl to give a final concentration of 573 mM. From this master solution, a 10 mM working solution was prepared in sterile water. The working solution was used within two months of preparation. M17 cells were loaded with iron initially by seeding into 48-well plates at a density of 0.15×10^6 cells per well in 0.5 mL media. After 48 h, old media was discarded. Fresh media was added supplemented from the 10 mM ^57Fe working solution to yield media containing 20 μM ^57Fe isotope. Cells received 0.2 mL of this ^57Fe enriched media and were returned to the incubator for 20 h. The ability of experimental compounds to efflux iron was determined by the dissolution of compounds in DMSO and diluted in Hanks' Balanced Salt Solution (HBSS) for treatment of M17 cells. After ^57Fe incubation, cells were rinsed twice with HBSS and treated with 0.15 ml trial compound for 2 h. Experimental substances were routinely screened at a concentration of 20 μM, however dilutions ranging from 1-40 μM were occasionally applied to further elucidate the properties of key compounds. All assays included a relevant vehicle (0.4%-0.8% DMSO) as well as a positive control. Following the treatment period, 0.1 mL of media was collected from cells and the extracellular ^57Fe content was analysed via inductively coupled mass spectrometry (ICP-MS, Agilent 7700×series instrument). […] After 2 h the Fe levels in the media were measured and the increase determined as a percentage increase relative to the cell media in the absence of the compound. [formula] Representative data is provided in Table 1 where the % Fe efflux for the specified compounds of the invention lie in the following ranges: A<30%, B 30-100%, C 100-150%; D>150%
row,SMILES,activation at 20 µM [%]
1,"Oc1ccccc1-c1nc(-c2cccc(CN3CCOCC3)c2O)n2c1CCCC2 [Compound 12, 2-(1-(2-Hydroxyphenyl)-5,6,7,8-tetrahydroimidazo[1,5-a]pyridin-3-yl)-6-(morpholinomethyl)phenol]",< 30
2,"Cc1ccc(O)c(-c2nc(-c3cccc(F)c3O)n3c2CCCC3)n1 [Compound 2, 2-(3-(3-Fluoro-2-hydroxyphenyl)-5,6,7,8-tetrahydroimidazo[1,5-a]pyridin-1-yl)-6-methylpyridin-3-ol]",> 150
3,"Oc1ccccc1-c1nc(-c2ccccc2O)n2c1CCC(C(F)(F)F)C2 (stereo not drawn) [Compound 36, 2,2′-(6-(Trifluoromethyl)-5,6,7,8-tetrahydroimidazo[1,5-a]pyridine-1,3-diyl)diphenol]",< 30
4,"Cc1ccc(O)c(-c2nc(-c3nc(C)ccc3O)c3n2CCCC3)c1 [Compound 5, 2-(3-(2-Hydroxy-5-methylphenyl)-5,6,7,8-tetrahydroimidazo[1,5-a]pyridin-1-yl)-6-methylpyridin-3-ol]",> 150
5,"Cc1ccc(O)c(-c2nc(-c3cc(F)ccc3O)n3c2CCCC3)n1 [Compound 3, 2-(3-(5-Fluoro-2-hydroxyphenyl)-5,6,7,8-tetrahydroimidazo[1,5-a]pyridin-1-yl)-6-methylpyridin-3-ol]",100 to 150
6,"Oc1ncccc1-c1nc(-c2cccc(Cl)c2O)n2c1CCCC2 [Compound 14, 3-(3-(3-Chloro-2-hydroxyphenyl)-5,6,7,8-tetrahydroimidazo[1,5-a]pyridin-1-yl)pyridin-2-ol]",100 to 150
7,"Cc1ccc(O)c(-c2nc(-c3ccccc3O)c3n2CC(C(F)(F)F)CC3)c1 (stereo not drawn) [Compound 38, 2-(1-(2-Hydroxyphenyl)-6-(trifluoromethyl)-5,6,7,8-tetrahydroimidazo[1,5-a]pyridin-3-yl)-4-methylphenol]",< 30
8,"Cc1ccc(O)c(-c2nc(-c3c(O)cccc3F)n3c2CCCC3)n1 [Compound 4, 2-(3-(2-Fluoro-6-hydroxyphenyl)-5,6,7,8-tetrahydroimidazo[1,5-a]pyridin-1-yl)-6-methylpyridin-3-ol]",30 to 100
9,"Cc1ccc(O)c(-c2nc(-c3ccccc3O)c3n2CC(C)CC3)c1 (stereo not drawn) [Compound 37, 2-(1-(2-Hydroxyphenyl)-6-methyl-5,6,7,8-tetrahydroimidazo[1,5-a]pyridin-3-yl)-4-methylphenol]",< 30
10,"Oc1ccccc1-c1nc(-c2ccccc2O)n2c1CCCC2 [Compound 7, 2,2′-(5,6,7,8-tetraHydroimidazo[1,5-a]pyridine-1,3-diyl)diphenol]",< 30
11,"Oc1ccccc1-c1nc(-c2c(O)cccc2F)n2c1CCCC2 [Compound 9, 3-Fluoro-2-(1-(2-hydroxyphenyl)-5,6,7,8-tetrahydroimidazo[1,5-a]pyridin-3-yl)phenol]",< 30
12,"Cc1ccc(O)c(-c2nc(-c3ccccc3O)n3c2CCC3)n1 [Compound 50, 2-(3-(2-Hydroxyphenyl)-6,7-dihydro-5H-pyrrolo[1,2-c]imidazol-1-yl)-6-methylpyridin-3-ol]",> 150
13,"Cc1ccc(O)c(-c2nc(-c3cccnc3O)c3n2CCCC3)c1 [Compound 13, 3-(3-(2-Hydroxy-5-methylphenyl)-5,6,7,8-tetrahydroimidazo[1,5-a]pyridine-1-yl)pyridine-2-ol]",100 to 150
14,"COC(=O)c1ccc(O)c(-c2nc(-c3ccccc3O)c3n2CCCC3)c1 [Compound 10, Methyl 4-hydroxy-3-(1-(2-hydroxyphenyl)-5,6,7,8-tetrahydroimidazo[1,5-a]pyridin-3-yl)benzoate]",30 to 100
15,"Oc1ccccc1-c1nc(-c2cccnc2O)c2n1CCCC2 [Compound 15, 3-(3-(2-hydroxyphenyl)-5,6,7,8-tetrahydroimidazo[1,5-a]pyridin-1-yl)pyridin-2-ol]",100 to 150
16,"Cc1ccc(O)c(-c2nc(-c3cccc(C)c3O)n3c2CCCC3)n1 [Compound 6, 2-(3-(2-Hydroxy-3-methylphenyl)-5,6,7,8-tetrahydroimidazo[1,5-a]pyridin-1-yl)-6-methylpyridin-3-ol]",100 to 150
17,"Cc1ccc(O)c(-c2nc(-c3cccc(F)c3O)n3c2CCC3)n1 [Compound 59, 2-(3-(3-Fluoro-2-hydroxyphenyl)-6,7-dihydro-5H-pyrrolo[1,2-c]imidazol-1-yl)-6-methylpyridin-3-ol]",> 150
18,"Oc1ccncc1-c1nc(-c2cccc(F)c2O)n2c1CCCC2 [Compound 30, 3-(3-(3-Fluoro-2-hydroxyphenyl)-5,6,7,8-tetrahydroimidazo[1,5-a]pyridin-1-yl)pyridin-4-ol]",> 150
19,"CCN(CC)CCc1cccc(-c2nc(-c3ccncc3O)c3n2CCCC3)c1O [Compound 22, 4-(3-(3-(2-(Diethylamino)ethyl)-2-hydroxyphenyl)-5,6,7,8-tetrahydroimidazo[1,5-a]pyridin-1-yl)pyridin-3-ol]",100 to 150
20,"Cc1ccc(O)c(-c2nc(-c3ccccc3O)n3c2CCCC3)n1 [Compound 1, 2-(3-(2-Hydroxyphenyl)-5,6,7,8-tetrahydroimidazo[1,5-a]pyridin-1-yl)-6-methylpyridin-3-ol]",> 150
21,"Cc1ccc(O)c(-c2nc(-c3ccccc3O)c3n2CCCC3)c1 [Compound 8, 2-(1-(2-Hydroxyphenyl)-5,6,7,8-tetrahydroimidazo[1,5-a]pyridin-3-yl)-4-methylphenol]",< 30
22,"Oc1ccncc1-c1nc(-c2ccccc2O)n2c1CCCC2 [Compound 29, 3-(3-(2-Hydroxyphenyl)-5,6,7,8-tetrahydroimidazo[1,5-a]pyridin-1-yl)pyridin-4-ol]",100 to 150
23,"Oc1ccccc1-c1nc(-c2ccccn2)n2c1CCCC2 [Compound 11, 2-(3-(Pyridin-2-yl)-5,6,7,8-tetrahydroimidazo[1,5-a]pyridin-1-yl)phenol]",< 30

# Same assay, conditions: M17 cells pre-loaded with 57Fe; compound 20 μM, 2 h; Fe in media as percentage increase relative to cell media in the absence of the compound
row,SMILES,% Fe Efflux Range
1,"Oc1cnccc1-c1nc(-c2ccccc2O)n2c1CCCC2 [Compound 21, 4-(3-(2-Hydroxyphenyl)-5,6,7,8-tetrahydroimidazo[1,5-a]pyridin-1-yl)pyridin-3-ol]",D (D>150%)
